# Several values for one entry are separate records, joined by “and”; a condition that tells them apart may be missing. Equal values may be shown once. Inconclusive results and toxic doses are left out.
# Tested on: BDF1 mice, B16 melanoma ip, median survival T/C
# Test: NCI In Vivo Anticancer Drug Screen. Data for tumor model B16 Melanoma (intraperitoneal) in B6D2F1 (BDF1) mice
# Conditions: endpoint: median survival time, higher = longer survival
# Procedure, shortened: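 Tumor-bearing mice received test compound or vehicle. Survival or tumor size was then measured in both groups. The treated-group figure was divided by the control-group figure.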
# [1] = dose: 6.25 mg/kg/injection, schedule: Q01DX009 (ip), vehicle: saline
# [2] = dose: 12.5 mg/kg/injection, schedule: Q01DX009 (ip), vehicle: saline
structure (smiles),measurement,setting,value
Nc1ncnc2c1c1c(=O)[nH]cnc1n2C1OC(CO)C(O)C1O (configuration not stated),T/C,"dose: 50.0 mg/kg/injection, schedule: Q01DX009 (ip), vehicle: Klucel (hydroxypropylcellulose) (HPC)",86 % of control
C=C(Cl)C(=NC(C)(C)C)Nc1ccccc1C,T/C,"dose: 3.12 mg/kg/injection, schedule: Q01DX009 (ip), vehicle: Klucel (hydroxypropylcellulose) (HPC)",99 % of control
same,T/C,"dose: 6.25 mg/kg/injection, schedule: Q01DX009 (ip), vehicle: Klucel (hydroxypropylcellulose) (HPC)",86 % of control
same,T/C,"dose: 12.5 mg/kg/injection, schedule: Q01DX009 (ip), vehicle: Klucel (hydroxypropylcellulose) (HPC)",92 % of control
same,T/C,"dose: 25.0 mg/kg/injection, schedule: Q01DX009 (ip), vehicle: Klucel (hydroxypropylcellulose) (HPC)",102 % of control
C=CCNCCN1CCN(CCCN2c3ccccc3Sc3ccc(C(F)(F)F)cc32)CC1,T/C,[1],105 % of control
same,T/C,"dose: 9.37 mg/kg/injection, schedule: Q04DX003 (ip), vehicle: saline",100 % of control
same,T/C,[2],110 % of control
same,T/C,"dose: 18.75 mg/kg/injection, schedule: Q04DX003 (ip), vehicle: saline",97 % of control
same,T/C,"dose: 55.0 mg/kg/injection, schedule: Q04DX003 (ip), vehicle: saline",91 % of control
C[CH2][Pb]([Br])([CH2]C)[CH2]C,T/C,"dose: 3.12 mg/kg/injection, schedule: Q01DX009 (ip), vehicle: saline with Tween-80",91 % of control
same,T/C,"dose: 6.25 mg/kg/injection, schedule: Q01DX009 (ip), vehicle: saline with Tween-80",94 % of control
same,T/C,"dose: 12.5 mg/kg/injection, schedule: Q01DX009 (ip), vehicle: saline with Tween-80",89 % of control
same,T/C,"dose: 25.0 mg/kg/injection, schedule: Q01DX009 (ip), vehicle: saline with Tween-80",94 % of control
CCCCCCCCCCCC[N+](C)(C)CCCCCCCCCCCC,T/C,"dose: 4.0 mg/kg/injection, schedule: Q01DX009 (ip), vehicle: saline",87 % of control
same,T/C,"dose: 8.0 mg/kg/injection, schedule: Q01DX009 (ip), vehicle: saline",88 % of control and 94 % of control
O=C(Nc1ccc(C(=O)Nc2cc(S(=O)(=O)O)cc3cc(S(=O)(=O)O)cc(O)c23)cc1)c1ccccc1,T/C,"dose: 100.0 mg/kg/injection, schedule: Q01DX009 (ip), vehicle: saline with Tween-80",94 % of control
same,T/C,"dose: 200.0 mg/kg/injection, schedule: Q01DX009 (ip), vehicle: saline with Tween-80",89 % of control
same,T/C,"dose: 400.0 mg/kg/injection, schedule: Q01DX009 (ip), vehicle: saline with Tween-80",89 % of control
O=C(Nc1cc(C(F)(F)F)ccc1Cl)c1ccc(Cl)cc1,T/C,"dose: 100.0 mg/kg/injection, schedule: Q01DX009 (ip), vehicle: Klucel (hydroxypropylcellulose) (HPC)",104 % of control
same,T/C,"dose: 200.0 mg/kg/injection, schedule: Q01DX009 (ip), vehicle: Klucel (hydroxypropylcellulose) (HPC)",100 % of control
same,T/C,"dose: 400.0 mg/kg/injection, schedule: Q01DX009 (ip), vehicle: Klucel (hydroxypropylcellulose) (HPC)",103 % of control
C=C(OC)C(Nc1cc(OC)c(OC)cc1C(=O)OC1CC(O[C@@H]2C(=O)C(NC(=O)OC)=C3/C(=C\CSSSC)[C@]2(O)C#C/C=C\C#C[C@@H]3OC2OC(C)C(NOC3CC(O)C(SC)C(C)O3)C(O)C2OC2CC(OC)C(NCCC)CO2)OC(C)C1O)OC (some centres not stated),T/C,"dose: 0.1 micrograms/kg/injection, schedule: Q01DX009 (ip), vehicle: methylcellulose (MC)",178 % of control
same,T/C,"dose: 0.2 micrograms/kg/injection, schedule: Q01DX009 (ip), vehicle: methylcellulose (MC)",172 % of control
same,T/C,"dose: 0.4 micrograms/kg/injection, schedule: Q01DX009 (ip), vehicle: methylcellulose (MC)",175 % of control
same,T/C,"dose: 0.4 micrograms/kg/injection, schedule: Q04DX003 (ip), vehicle: methylcellulose (MC)",160 % of control
same,T/C,"dose: 0.8 micrograms/kg/injection, schedule: Q01DX009 (ip), vehicle: methylcellulose (MC)",182 % of control
same,T/C,"dose: 1.6 micrograms/kg/injection, schedule: Q01DX009 (ip), vehicle: methylcellulose (MC)",182 % of control
same,T/C,"dose: 1.6 micrograms/kg/injection, schedule: Q04DX003 (ip), vehicle: methylcellulose (MC)",168 % of control
same,T/C,"dose: 3.2 micrograms/kg/injection, schedule: Q04DX003 (ip), vehicle: methylcellulose (MC)",153 % of control
same,T/C,"dose: 6.4 micrograms/kg/injection, schedule: Q04DX003 (ip), vehicle: methylcellulose (MC)",106 % of control
CN(C)CCC=C1c2ccccc2CCc2ccccc21,T/C,"dose: 3.12 mg/kg/injection, schedule: Q01DX009 (ip), vehicle: saline",109 % of control
same,T/C,[1],117 % of control
same,T/C,[2],100 % of control
same,T/C,"dose: 25.0 mg/kg/injection, schedule: Q01DX009 (ip), vehicle: saline",102 % of control
CC(C)[C@]12O[C@H]1[C@@H]1O[C@]13[C@]1(O[C@H]1C[C@H]1C4=C(C(=O)OC4)[C@@H](O)C[C@@]13C)[C@@H]2O,T/C,"dose: 12.5 micrograms/kg/injection, schedule: Q01DX009 (ip), vehicle: saline + alcohol",112 % of control
same,T/C,"dose: 25.0 micrograms/kg/injection, schedule: Q01DX009 (ip), vehicle: saline + alcohol",110 % of control
same,T/C,"dose: 50.0 micrograms/kg/injection, schedule: Q01DX009 (ip), vehicle: saline + alcohol",110 % of control
same,T/C,"dose: 63.0 micrograms/kg/injection, schedule: Q01DX009 (ip), vehicle: saline + alcohol",102 % of control
same,T/C,"dose: 100.0 micrograms/kg/injection, schedule: Q01DX009 (ip), vehicle: saline + alcohol",122 % of control
same,T/C,"dose: 125.0 micrograms/kg/injection, schedule: Q01DX009 (ip), vehicle: saline + alcohol",111 % of control
same,T/C,"dose: 250.0 micrograms/kg/injection, schedule: Q01DX009 (ip), vehicle: saline + alcohol",107 % of control

# — PubChem BioAssay AID192 (DTP/NCI, 2004)
